Source: US12552766B2, “Pesticidally active azole amide compounds” (SYNGENTA CROP PROTECTION AG, priority 2019, dated 2026)

What was measured:
Type in all cases: in vivo
[1] = system: Diabrotica Balteata (Corn Root Worm); assay: Example B1: Diabrotica balteata, spray on maize sprouts; details: 96 h, application rate of 200 ppm, L2 larvae, 4 days after infestation, read-out: control in at least one of the two categories (mortality or growth inhibition)
Protocol: Maize sprouts placed onto an agar layer in 24-well microtiter plates were treated with aqueous test solutions prepared from 10′000 ppm DMSO stock solutions by spraying. After drying, the plates were infested with L2 larvae (6 to 10 per well). The samples were assessed for mortality and growth inhibition in comparison to untreated samples 4 days after infestation.

[2] = system: Euschistus heros (Neotropical Brown Stink Bug); assay: Example B2: Euschistus heros, spray on soybean leaves; details: 120 h, application rate of 200 ppm, N2 nymphs, 5 days after infestation, read-out: control in at least one of the two categories (mortality or growth inhibition)
Protocol: Soybean leaves on agar in 24-well microtiter plates were sprayed with aqueous test solutions prepared from 10′000 ppm DMSO stock solutions. After drying the leaves were infested with N2 nymphs. The samples were assessed for mortality and growth inhibition in comparison to untreated samples 5 days after infestation.

[3] = system: Chilo suppressalis (Striped Rice Stemborer); assay: Example B4: Chilo suppressalis, artificial diet; details: 144 h, application rate of 200 ppm, L2 larvae, 6 days after infestation, read-out: control in at least one of the three categories (mortality, anti-feedant effect, or growth inhibition)
Protocol: 24-well microtiter plates with artificial diet were treated with aqueous test solutions prepared from 10′000 ppm DMSO stock solutions by pipetting. After drying, the plates were infested with L2 larvae (6-8 per well). The samples were assessed for mortality, anti-feeding effect, and growth inhibition in comparison to untreated samples 6 days after infestation. Control of Chilo suppressalis by a test sample is given when at least one of the categories mortality, anti-feedant effect, and growth inhibition is higher than the untreated sample.

[4] = system: Plutella xylostella (Diamond Back Moth); assay: Example B5: Plutella xylostella, artificial diet, 24-well; details: 192 h, application rate of 200 ppm, eggs, 8 days after infestation, read-out: control in at least one of the two categories (mortality or growth inhibition)
Protocol: 24-well microtiter plates with artificial diet were treated with aqueous test solutions prepared from 10′000 ppm DMSO stock solutions by pipetting. After drying, Plutella eggs were pipetted through a plastic stencil onto a gel blotting paper and the plate was closed with it. The samples were assessed for mortality and growth inhibition in comparison to untreated samples 8 days after infestation.

[5] = system: Spodoptera littoralis (Egyptian Cotton Leaf Worm); assay: Example B9: Spodoptera littoralis, spray on cotton leaf discs; details: foliar, 72 h, application rate of 200 ppm, L1 larvae, 3 days after infestation, read-out: control in at least one of the three categories (mortality, anti-feedant effect, or growth inhibition)
Protocol: Cotton leaf discs were placed onto agar in 24-well microtiter plates and sprayed with aqueous test solutions prepared from 10′000 ppm DMSO stock solutions. After drying the leaf discs were infested with five L1 larvae. The samples were assessed for mortality, anti-feeding effect, and growth inhibition in comparison to untreated samples 3 days after infestation. Control of Spodoptera littoralis by a test sample is given when at least one of the categories mortality, anti-feedant effect, and growth inhibition is higher than the untreated sample.

[6] = system: Plutella xylostella (Diamondback Moth); assay: Example B13: Plutella xylostella, artificial diet, 96-well; details: 216 h, application rate of 500 ppm, eggs/L1 larvae, 9 days after infestation
Protocol: 96-well microtiter plates containing artificial diet were treated with aqueous test solutions, prepared from 10′000 ppm DMSO stock solutions, by a liquid handling robot. After drying, eggs (˜30 per well) were infested onto a netted lid which was suspended above the diet. The eggs hatch and L1 larvae move down to the diet. The samples were assessed for mortality 9 days after infestation.

CC(NC(=O)c1cc(Cl)cc(C(F)(F)F)c1)c1nc(Br)nn1-c1ccc(OC(F)F)cn1 (stereo not drawn) [Compound P26, N-[1-[5-bromo-2-[5-(difluoromethoxy)-2-pyridyl]-1,2,4-triazol-3-yl]ethyl]-3-chloro-5-(trifluoromethyl) benzamide]
≥ 80%: percent control (mortality or growth inhibition) at 200 ppm [1] | percent control (mortality or growth inhibition) at 200 ppm [2] | percent control (mortality, anti-feedant effect or growth inhibition) at 200 ppm [3] | percent control (mortality or growth inhibition) at 200 ppm [4] | percent control (mortality, anti-feedant effect or growth inhibition) at 200 ppm [5]

CC(NC(=O)c1cc(Br)cc(C(F)(F)F)c1)c1nc(Br)nn1-c1ccc(C#N)cn1 (stereo not drawn) [Compound P30, 3-bromo-N-[1-[5-bromo-2-(5-cyano-2-pyridyl)-1,2,4-triazol-3-yl]ethyl]-5-(trifluoromethyl) benzamide]
≥ 80%: percent control (mortality or growth inhibition) at 200 ppm [1] | percent control (mortality, anti-feedant effect or growth inhibition) at 200 ppm [3] | percent control (mortality or growth inhibition) at 200 ppm [4] | percent control (mortality, anti-feedant effect or growth inhibition) at 200 ppm [5] | mortality at 500 ppm [6]

CC(NC(=O)c1cc(Cl)cc(C(F)(F)F)c1)c1nc(Br)nn1-c1ccc(C#N)cn1 (stereo not drawn) [Compound P31, N-[1-[5-bromo-2-(5-cyano-2-pyridyl)-1,2,4-triazol-3-yl]ethyl]-3-chloro-5-(trifluoromethyl) benzamide]
≥ 80%: percent control (mortality or growth inhibition) at 200 ppm [1] | percent control (mortality, anti-feedant effect or growth inhibition) at 200 ppm [3] | percent control (mortality or growth inhibition) at 200 ppm [4] | percent control (mortality, anti-feedant effect or growth inhibition) at 200 ppm [5] | mortality at 500 ppm [6]

CC(NC(=O)c1cc(OC(F)F)cc(C(F)(F)F)c1)c1nc(Br)nn1-c1ncc(OC(F)F)cn1 (stereo not drawn) [Compound P3, N-[1-[5-bromo-2-[5-(difluoromethoxy)pyrimidin-2-yl]-1,2,4-triazol-3-yl]ethyl]-3-(difluoromethoxy)-5-(trifluoromethyl) benzamide]
≥ 80%: percent control (mortality or growth inhibition) at 200 ppm [1] | percent control (mortality, anti-feedant effect or growth inhibition) at 200 ppm [3] | percent control (mortality or growth inhibition) at 200 ppm [4] | percent control (mortality, anti-feedant effect or growth inhibition) at 200 ppm [5] | mortality at 500 ppm [6]

CC(NC(=O)c1cc(Br)cc(C(F)(F)F)c1)c1nc(Br)nn1-c1ncc(OCC(F)F)cn1 (stereo not drawn) [Compound P18, 3-bromo-N-[1-[5-bromo-2-[5-(2,2-difluoroethoxy)pyrimidin-2-yl]-1,2,4-triazol-3-yl]ethyl]-5-(trifluoromethyl) benzamide]
≥ 80%: percent control (mortality or growth inhibition) at 200 ppm [1] | percent control (mortality, anti-feedant effect or growth inhibition) at 200 ppm [3] | percent control (mortality or growth inhibition) at 200 ppm [4] | percent control (mortality, anti-feedant effect or growth inhibition) at 200 ppm [5] | mortality at 500 ppm [6]

CC(NC(=O)c1cc(C(F)F)cc(C(F)(F)F)c1)c1nc(Br)nn1-c1ncc(OC(F)F)cn1 (stereo not drawn) [Compound P28, N-[1-[5-bromo-2-[5-(difluoromethoxy)pyrimidin-2-yl]-1,2,4-triazol-3-yl]ethyl]-3-(difluoromethyl)-5-(trifluoromethyl) benzamide]
≥ 80%: percent control (mortality or growth inhibition) at 200 ppm [1] | percent control (mortality, anti-feedant effect or growth inhibition) at 200 ppm [3] | percent control (mortality or growth inhibition) at 200 ppm [4] | percent control (mortality, anti-feedant effect or growth inhibition) at 200 ppm [5] | mortality at 500 ppm [6]

CC(NC(=O)c1cc(Cl)cc(C(F)(F)F)c1)c1nc(Br)nn1-c1ccc(OCC(F)F)cn1 (stereo not drawn) [Compound P49, N-[1-[5-bromo-2-[5-(2,2-difluoroethoxy)-2-pyridyl]-1,2,4-triazol-3-yl]ethyl]-3-chloro-5-(trifluoromethyl) benzamide]
≥ 80%: percent control (mortality or growth inhibition) at 200 ppm [1] | percent control (mortality, anti-feedant effect or growth inhibition) at 200 ppm [3] | percent control (mortality or growth inhibition) at 200 ppm [4] | percent control (mortality, anti-feedant effect or growth inhibition) at 200 ppm [5] | mortality at 500 ppm [6]

CC(NC(=O)c1cc(OCC(F)(F)F)cc(C(F)(F)F)c1)c1nc(Br)nn1-c1ncc(OCC(F)(F)F)cn1 (stereo not drawn) [Compound P46, N-[1-[5-bromo-2-[5-(2,2,2-trifluoroethoxy)pyrimidin-2-yl]-1,2,4-triazol-3-yl]ethyl]-3-(2,2,2-trifluoroethoxy)-5-(trifluoromethyl) benzamide]
≥ 80%: percent control (mortality or growth inhibition) at 200 ppm [1] | percent control (mortality, anti-feedant effect or growth inhibition) at 200 ppm [3] | percent control (mortality or growth inhibition) at 200 ppm [4] | percent control (mortality, anti-feedant effect or growth inhibition) at 200 ppm [5] | mortality at 500 ppm [6]

CC(NC(=O)c1cc(Br)cc(C(F)(F)F)c1)c1nc(Br)nn1-c1ccc(OC(F)F)cn1 (stereo not drawn) [Compound P13, 3-bromo-N-[1-[5-bromo-2-[5-(difluoromethoxy)-2-pyridyl]-1,2,4-triazol-3-yl]ethyl]-5-(trifluoromethyl) benzamide]
≥ 80%: percent control (mortality or growth inhibition) at 200 ppm [1] | percent control (mortality, anti-feedant effect or growth inhibition) at 200 ppm [3] | percent control (mortality or growth inhibition) at 200 ppm [4] | percent control (mortality, anti-feedant effect or growth inhibition) at 200 ppm [5] | mortality at 500 ppm [6]

CC(NC(=O)c1cc(C(F)F)cc(C(F)(F)F)c1)c1nc(Br)nn1-c1ncc(OCC(F)(F)F)cn1 (stereo not drawn) [Compound P42, N-[1-[5-bromo-2-[5-(2,2,2-trifluoroethoxy)pyrimidin-2-yl]-1,2,4-triazol-3-yl]ethyl]-3-(difluoromethyl)-5-(trifluoromethyl) benzamide]
≥ 80%: percent control (mortality or growth inhibition) at 200 ppm [1] | percent control (mortality, anti-feedant effect or growth inhibition) at 200 ppm [3] | percent control (mortality or growth inhibition) at 200 ppm [4] | percent control (mortality, anti-feedant effect or growth inhibition) at 200 ppm [5] | mortality at 500 ppm [6]

CC(NC(=O)c1cc(Br)cc(C(F)(F)F)c1)c1nc(Br)nn1-c1ncc(OCC(F)(F)F)cn1 (stereo not drawn) [Compound P41, 3-bromo-N-[1-[5-bromo-2-[5-(2,2,2-trifluoroethoxy)pyrimidin-2-yl]-1,2,4-triazol-3-yl]ethyl]-5-(trifluoromethyl) benzamide]
≥ 80%: percent control (mortality or growth inhibition) at 200 ppm [1] | percent control (mortality, anti-feedant effect or growth inhibition) at 200 ppm [3] | percent control (mortality or growth inhibition) at 200 ppm [4] | percent control (mortality, anti-feedant effect or growth inhibition) at 200 ppm [5] | mortality at 500 ppm [6]

CC(=O)c1nc(C(C)NC(=O)c2cc(C(F)(F)F)cc(C(F)(F)F)c2)n(-c2ccc(C#N)cn2)n1 (stereo not drawn) [Compound P57, N-[1-[5-acetyl-2-(5-cyano-2-pyridyl)-1,2,4-triazol-3-yl]ethyl]-3,5-bis(trifluoromethyl) benzamide]
≥ 80%: percent control (mortality or growth inhibition) at 200 ppm [1] | percent control (mortality, anti-feedant effect or growth inhibition) at 200 ppm [3] | percent control (mortality or growth inhibition) at 200 ppm [4] | percent control (mortality, anti-feedant effect or growth inhibition) at 200 ppm [5] | mortality at 500 ppm [6]

CC(NC(=O)c1cc(OCC(F)(F)F)cc(C(F)(F)F)c1)c1nc(Br)nn1-c1ccc(C#N)cn1 (stereo not drawn) [Compound P21, N-[1-[5-bromo-2-(5-cyano-2-pyridyl)-1,2,4-triazol-3-yl]ethyl]-3-(2,2,2-trifluoroethoxy)-5-(trifluoromethyl) benzamide]
≥ 80%: percent control (mortality or growth inhibition) at 200 ppm [1] | percent control (mortality, anti-feedant effect or growth inhibition) at 200 ppm [3] | percent control (mortality or growth inhibition) at 200 ppm [4] | percent control (mortality, anti-feedant effect or growth inhibition) at 200 ppm [5] | mortality at 500 ppm [6]

CC(NC(=O)c1cc(OC(F)F)cc(C(F)(F)F)c1)c1nc(Br)nn1-c1ncc(OCC(F)(F)F)cn1 (stereo not drawn) [Compound P45]
≥ 80%: percent control (mortality or growth inhibition) at 200 ppm [1] | percent control (mortality, anti-feedant effect or growth inhibition) at 200 ppm [3] | percent control (mortality or growth inhibition) at 200 ppm [4] | percent control (mortality, anti-feedant effect or growth inhibition) at 200 ppm [5] | mortality at 500 ppm [6]

CC(NC(=O)c1cc(C(F)F)cc(C(F)(F)F)c1)c1nc(Br)nn1-c1ccc(C#N)cn1 (stereo not drawn) [Compound P8, N-[1-[5-bromo-2-(5-cyano-2-pyridyl)-1,2,4-triazol-3-yl]ethyl]-3-(difluoromethyl)-5-(trifluoromethyl) benzamide]
≥ 80%: percent control (mortality or growth inhibition) at 200 ppm [1] | percent control (mortality, anti-feedant effect or growth inhibition) at 200 ppm [3] | percent control (mortality or growth inhibition) at 200 ppm [4] | percent control (mortality, anti-feedant effect or growth inhibition) at 200 ppm [5] | mortality at 500 ppm [6]
